Data from US20180117148A1, “COMPOUNDS, PHARMACEUTICAL COMPOSITIONS AND METHODS OF TREATMENTS OF IMMUNE RELATED DISEASES AND DISORDERS” (priority 2016, published 2018).
Where “and” joins values, the source holds several entries; their conditions need not be identical. Equal values may be shown once.

Legend:
[1] = tested on: patients with either rheumatoid or psoriatic arthritis; assay: Retrospective community-based study of etanercept with adjunctive neuroregulatory medications, 28-joint count (swollen and tender); format: in vivo, human
Experimental: A retrospective, community-based study assessed consecutive patients initiating biologic treatment of inflammatory arthritis. Improved outcomes were measured by a 28-joint count (swollen and tender). […] Consecutive patients with either rheumatoid or psoriatic arthritis initiated etanercept (25 mg/BIW). For partial response, neuroregulatory medications were added. Neuroregulatory medication options included bedtime dosing of either lorazepam or clonazepam, pramipexole, trazodone, other antidepressants and anticonvulsants.
Primary outcome: “≥70% reduction in 28-joint count (tender and swollen). Statistical analysis: LOCF and logistic regression (see data in FIGS. 1 and 2).

[2] = tested on: inflammatory joint diseases like rheumatoid arthritis (RA) and psoriatic arthritis; conditions: etanercept in inflammatory joint diseases (RA, psoriatic arthritis); background figure; cited from earlier work

Substance: etanercept
- patients in whom NSAIDs were discontinued ([1]; 14 of 29 on NSAIDs at baseline): 48%
- patients in whom other DMARDs were discontinued ([1]; 22 of 28 on other DMARDs at baseline): 79%
- patients in whom methotrexate was discontinued ([1]; 24 of 32 on methotrexate at baseline (19.14 mg/wk)): 75%
- patients in whom prednisone was discontinued ([1]; 26 of 42 on prednisone at baseline (6.7 mg/d)): 62%
- patients achieving ≥70% reduction in joint count ([1]; by BOCF, 66 patients, etanercept 25 mg BIW, neuroregulatory medications added for partial response): 74%
- patients achieving ≥70% reduction in 28-joint count (tender and swollen), primary outcome ([1]; by LOCF, 52/66 patients, etanercept 25 mg BIW, neuroregulatory medications added for partial response (36/66), p<0.001): 79%
- mean 28-joint count after addition of etanercept ([1]; decreased from baseline 11.6±9.0, 66 patients, etanercept 25 mg BIW, neuroregulatory medications added for partial response): 1.3 and 1.3±4.3
- patients achieving American College of Rheumatology 70% improvement (ACR70) response [2]: About 27%
- patients receiving disease activity score (DAS) remission response [2]: 20.5%
